Source: patent publication US12161634B2, “Pyruvate kinase R (PKR) activating compositions” (Novo Nordisk Health Care AG, priority 2020, dated 2024)

Assay: Dynamic vapor sorption (DVS)
Type: physicochemical
Conditions: for hygroscopicity: DVS at RT; for water uptake from 60% RH to 80% RH / water uptake up to 60% RH: DVS; for water uptake from 60% RH to 80% RH / water uptake up to 60% RH / form change before and after DVS test: RT; for water uptake up to 60% RH: up to 60% RH (ambient condition); for form change before and after DVS test: determined by XRPD
Protocol: Dynamic Vapor Sorption (DVS) was measured with a Surface Measurement System (SMS) DVS Intrinsic.

hygroscopicity | water uptake from 60% RH to 80% RH [%] | water uptake up to 60% RH [%] | form change before and after DVS test | SMILES
hygroscopic | 0.4 | 2.9 | No form change | O=C([C@H](CO)c1ccccc1)N1CC2=C(C1)CN(S(=O)(=O)c1cnc3c(c1)OCCO3)C2 [Type B, (S)-1-(5-[2H,3H-[1,4]dioxino[2,3-b]pyridine-7-sulfonyl]-1H,2H,3H,4H,5H,6H-pyrrolo[3,4-c]pyrrol-2-yl)-3-hydroxy-2-phenylpropan-1-one]
hygroscopic | 0.5 | 1.8 | No form change | O=C([C@H](CO)c1ccccc1)N1CC2=C(C1)CN(S(=O)(=O)c1cnc3c(c1)OCCO3)C2 [Type C, (S)-1-(5-[2H,3H-[1,4]dioxino[2,3-b]pyridine-7-sulfonyl]-1H,2H,3H,4H,5H,6H-pyrrolo[3,4-c]pyrrol-2-yl)-3-hydroxy-2-phenylpropan-1-one]
